Patent US7351729B2, “JNK inhibitors for use in combination therapy for treating or managing proliferative disorders and cancers” (Signal Pharmaceuticals, LLC, priority 2002, dated 2008)

Tests used:
[1] = tested on: HCT-116 human colorectal cancer cells; assay: HCT-116 tumor growth in SCID mice, JNK inhibitor C with Camptosar; format: in vivo, CB17 SCID mice; settings: JNK inhibitor C (15 mg/kg, i.p., b.i.d) + Camptosar (1.5 mg/kg, q4d)
Method: The following experiment was performed to determine the effectiveness of combination treatment with JNK inhibitor C (JNK inhibitor C=(3-(4-(2-Piperidin-1-yl-ethoxy)-cyclohexa-1,5-dienyl)-5-(2H-(1,2,4)triazol-3-yl)-1H-indazole)) and Camptosar. The results are illustrated in FIG. 5.
CB17 SCID mice were inoculated subcutaneously with HCT-116 human colorectal cancer cells. On day 8, mice bearing tumors of 100 mm^3 were segregated into groups and administered i.p. with vehicle (citrate buffer), JNK inhibitor C (15 mg/kg), JNK inhibitor C (30 mg/kg), JNK inhibitor C (15 mg/kg)+Camptosar (1.5 mg/kg), Camptosar (1.5 mg/kg) or Camptosar (10 mg/kg). The tumors were measured twice a week and volumes calculated. The dosing regimen for the compound JNK inhibitor C was b.i.d and for Camptosar was q4d. The arrows indicate the dosing days of JNK inhibitor C and Camptosar.

[2] = tested on: Lewis Lung Carcinoma (LLC) cells; assay: Lewis Lung Carcinoma (LLC) proliferation in vitro, Alamar Blue fluorescence; format: cell-based; settings: combination with a chemodrug (doxorubican, 5-FU, cisplatin or paclitaxel), 48 hours after treatment, relative to JNK inhibitor or chemodrug alone
Method: This experiment was performed in vitro to determine the effect on Lewis Lung Carcinoma (LLC) proliferation of combination treatment with JNK inhibitor A and JNK inhibitor B (JNK inhibitor A=((2H-Dibenzo(cd,g)indazol-6-one)); JNK inhibitor B=(3-(4-fluoro-phenyl)-5-(2H-(1,2,4-triazol-3-yl)-1H-indazole)) and anti-cancer agents. The results are illustrated in FIGS. 1A and 1B.
LLC cells were grown in DMEM with 10% FBS. Cells were subsequently treated on the second day with either DMSO,JNK inhibitor A (3 μM, 10 μM or 30 μM), JNK inhibitor B (1 μM, 3 μM, or 10 μM), or a chemodrug (i.e., doxorubican, […] (5-FU), cisplatin or paclitaxel) (concentrations ranging from 0.001 μM to 10 μM) or a combination of JNK inhibitor A or JNK inhibitor B with a chemodrug. Cell proliferation was measured at 48 hours after treatment by Alamar Blue fluorescence.

[3] = tested on: Lewis Lung Carcinoma (LLC) tumors; assay: LLC tumor growth in mice, JNK inhibitor B with cyclophosphamide; format: in vivo, C57BL/6 mice; settings: CTX (50 mg/kg, ip, q3d) in combination with JNK inhibitor B; 17 days; 10/group
Method: This experiment was performed to determine if JNK inhibitors will enhance the antitumor effects of cyclophosphamide (CTX) in combination treatment. Results are illustrated in FIG. 2.
Lewis Lung Carcinoma (LLC) tumors were injected into C57BL/6 mice (50 mice, 10/group), 1×10^6 cells in 0.1 ml Matrigel. Tumors were treated the day after inoculation by administration of vehicle alone (0.5% CMC/0.25% Tween 80), cyclophosphamide (CTX, 50 mg/kg, ip, q3d), SPC2 (75 mg/kg, ip, b.i.d.) or CTX in combination with JNK inhibitor B. Tumor volume was recorded over a period of 17 days. Tumor volume was calculated by the formula: mm^3=(L×W^2)/2. In the CTX/JNK inhibitor B combination group, 7/10 animals had no measurable tumors at the end of the study.

Lewis lung carcinoma = assay: LLC tumor growth in mice, JNK inhibitor A with cyclophosphamide; format: in vivo, C57BL/6 mice; settings: JNK inhibitor A in combination with cyclophosphamide; p=0.05; N=10
Method: The following experiment was performed to determine the effectiveness of combination treatment with JNK inhibitor A and cyclophosphamide. The results are illustrated in FIG. 4.
Tumor cells were cultured under normal conditions, harvested with trypsin, washed with PBS then resuspended, 1×10^7 cells/ml in Matrigel (Collaborative). C57BL/6 mice (female, 18-20 g, Charles River) were lightly anesthetized using Isofluorane then inoculated, subcutaneously, under the right flank with 0.1 ml Matrigel containing 1×10^6 tumor cells. Mice were randomized into treatment groups immediately after cell inoculation. After 3 days tumor growth treatment began. Mice were administered vehicle alone (DMSO), cyclophosphamide (CTX), JNK inhibitor A or CTX in combination with JNK inhibitor A. Tumor volumes were determined by caliper measurement. Tumor volume was calculated by the formula: mm^3=(L×W2)/2. Values are mean±sem, N=10.

MiaPaCa cells = assay: MiaPaCa cell apoptosis, DiOC6 staining and flow cytometry; format: cell-based; settings: taxol for first 7 hours, washed out, then JNK inhibitor A; read at 48 hours; compared to taxol alone
Method: The following experiment was performed to determine the effectiveness of combination treatment with JNK inhibitor A and a chemodrug on apoptosis. The results are illustrated in FIG. 3.
MiaPaCa cells (100,000/well) were plated in 6 well plates. Following overnight incubation, vehicle or taxol was added alone for the first 7 hours, washed out, and then JNK inhibitor A or vehicle were added for the remainder of the experiment. After 48 hours, each sample was trypsinized, stained with DiOC6 and analyzed by flow cytometry on a Coulter Epics flow cytometer using FlowJo software.

Compound	tumor growth versus either treatment alone [1]	killing of cells (cell proliferation) [2]	animals with no measurable tumors at the end of the study [3]	tumor inhibition (tumor volume) versus cyclophosphamide alone (Lewis lung carcinoma)	chemotherapeutic induction of apoptosis (MiaPaCa cells)
C1=CC(OCCN2CCCCC2)CC=C1c1n[nH]c2ccc(-c3ncn[nH]3)cc12 (stereo not drawn) [JNK inhibitor C, 3-(4-(2-Piperidin-1-yl-ethoxy)-cyclohexa-1,5-dienyl)-5-(2H-(1,2,4)triazol-3-yl)-1H-indazole]	significantly slower	–	–	–	–
Fc1ccc(-c2n[nH]c3ccc(-c4ncn[nH]4)cc23)cc1 [JNK inhibitor B, 3-(4-fluoro-phenyl)-5-(2H-(1,2,4)triazol-3-yl)-1H-indazole]	–	increased killing of cells	7/10	–	–
O=C1c2ccccc2-c2n[nH]c3cccc1c23 [JNK inhibitor A, 2H-Dibenzo(cd,g) indazol-6-one]	–	increased killing of cells	–	significantly less	Potentiates Chemotherapeutic Induction of Apoptosis
